Reference: US20140255330A1, “Mixed Sugar Compositions” (THE PROCTER & GAMBLE COMPANY, priority 2013, published 2014)
Blank lines part the entries; values can stand above or below the compound they belong to.

Assays:
[1] = Thermal transition determination via DSC, -40° C. program (procedure of Example 30); type: physicochemical; details: for T Intercept-2 / T Peak Max-2: peak 2
Experimental: (§1) A Tzero Hermetic pan & lid was charged with ˜10-15 mg mixed material sample described in Examples 22. A Direct Scanning Coulometer, DSC Q2000 V24.9 was used to determine thermal transitions. The following temperature profile was used to obtain the data: ambient temperature cooled to −40° C. at 20° C./min, −40° C. to 160° C. at 20° C./min. The T intercept is defined as the temperature where the extrapolated slope of the initial curve of a peak intercepts the interpolated baseline of that peak. T Peak Max is defined as the temperature at the peak (inflection point) of a given curve.
Temperature program: Ambient temperature to −40° C. at 20° C./min, −40° C. to 140° C. at 20° C./min.
(§2) The procedure of Example 30 was followed using the mixed C12-ene-NMG:C12-ene-NMX samples described in Example 24.
The procedure of Example 30 was followed using the mixed C15-ene-NMG:C15-ene-NMX samples described in Example 25. […]
The procedure of Example 30 was followed using the mixed NMHG:NMHX samples described in Example 46.

[2] = Physical consistency of samples noted at ambient temperature; type: physicochemical; details: when placed into DSC pan
Description: as §2
The procedure of Example 30 was followed using the mixed C15-ene-NMG:C15-ene-NMX samples described in Example 25.
The procedure of Example 30 was followed using the mixed CCO-NMG:CCO-NMX samples described in Example 37.

[3] = Visual melting point determination (capillary melting point apparatus); type: physicochemical; details: for Ending MP: transparent gel to liquid
Description: A Kimax −51 capillary tube (size 1.5−1.8×90 mm) was charged with the mixed C12-NMG:C12-NMX samples described in Example 22 to afford ˜½ inch sample bed. A Tomas Hoover Capillary Melting Point Apparatus was used to determine melting points visually. The Starting Melting Point (MP) is defined as the temperature (° C.) when the initial white opaque solid has completed the transition to a transparent gel. The Ending Melting Point (MP) is defined as the temperature (° C.) when the transparent gel transitions to liquid.
The procedure of Example 27 was followed using the mixed C12-NMG:C12-NMGly samples described in Example 23.

[4] = Thermal transition determination via DSC, -20° C. to 160° C. at 20° C./min; type: physicochemical; details: C12-NMG:C12-NMX; for T Intercept / T Peak Max: peak 1; for T Intercept-3 / T Peak Max-3: peak 3
Experimental: as §1, with “transitions. A DSC is able to detect phase transitions within a material that might not be visible to the naked eye.” for “transitions.”, “−20°” for “−40°”
Temperature program: Ambient temperature to −20° C. at 20° C./min, −20° C. to 160° C. at 20° C./min.

[5] = literature values; cited from earlier work
[6] = Krafft Point analysis, Phase Technology NK60-KPA Analyzer (Diffusive Light Scattering); type: physicochemical; details: 1 wt % solutions of C12-NMG and C12-NMX in deionized water mixed by volume
Experimental: Krafft Point analysis was performed on a Phase Technology® NK60-KPA Analyzer that used a Diffusive Light Scattering (DLS) detection method. A 1 wt % solution was prepared in deionized water and 0.150 ml of this solution was added to the sample cell of the instrument at room temperature (20-25° C.). The following heating and cooling cycle was executed on the sample. Samples were warmed to 40° C. at a ramp rate of 5° C./min and held for 30 seconds. Next, Samples were cooled to −20° C. at a rate of −10° C./min and held for 60 seconds. Samples were then warmed to 0° C. at a rate of 5° C./min, held for 0 seconds, warmed to 30° C. at a rate of 2° C./min, held for 0 seconds and lastly warmed to 40° C. at a rate of 5° C./min.
Data was recorded as crystal count (y-axis) versus temperature (x-axis). […] During final warming cycle, when crystal count returned to original baseline, the temperature at that point was recorded as the Krafft point.
(§3) 1 wt % solutions of each of the materials in the table below were tested. […] A volume of 0.150 mL of this mixture was then analyzed via the Phase Technology® NK60-KPA Analyzer.
as §3

[7] = C12-ene-NMG:C12-ene-NMX, peak 1, ** = No peak was observed
[8] = C12-NMG:C12-NMGly blends by weight
[9] = C12-NMG:C12-NMX blends by weight
[10] = C12-NMG:C12-NMX blends by weight, white opaque solid to transparent gel
[11] = C15-ene-NMG:C15-ene-NMX, peak 1, ** = No peak was observed

Compound: CCC=CCCCCCCCC(=O)N(C)CC(O)C(O)C(O)CO (centres unmarked) [Example C12-ene-NMX, N-(9-Dodecenoyl)-N-Methylxylamine]
T Intercept [1, 7]: 26.0 °C
T Peak Max [1, 7]: 28.6 °C
T Intercept-2 ([1]; C12-ene-NMG:C12-ene-NMX): 86.2 °C
T Peak Max-2 ([1]; C12-ene-NMG:C12-ene-NMX): 89.5 °C
physical consistency of sample [2]: waxy in nature

Compound: CCCCCCCCCCCC(=O)N(C)C[C@H](O)[C@@H](O)[C@H](O)[C@H](O)CO [Example C12-NMG, N-Dodecanoyl-N-Methylglucamine]
Ending PM [3, 8]: 127.2 °C
Starting MP [3, 8]: 96.8 °C
Ending MP [3, 9]: 129.8 °C
Starting MP [3, 10]: 96 °C
T Intercept [4]: 84.1 °C
T Peak Max [4]: 94.7 °C
T Intercept-3 [4]: 136.7 °C
T Peak Max-3 [4]: 137.9 °C
T Intercept ([1]; C12-NMG:C12-NMGly, peak 1): 82.0 °C
T Peak Max ([1]; C12-NMG:C12-NMGly, peak 1): 94.7 °C
T Intercept-2 ([1]; C12-NMG:C12-NMGly): 137.0 °C
initial melting point (Zhu et al) [5]: 90.5-91.5 °C

Compound: CCC=CCCCCCCCC(=O)N(C)C[C@H](O)[C@@H](O)[C@H](O)[C@H](O)CO [Example C12-ene-NMG, N-(9-Dodecenoyl)-N-Methylglucamine]
T Intercept [1, 7]: 67.0 °C
T Peak Max [1, 7]: 78.7 °C
T Intercept-2 ([1]; C12-ene-NMG:C12-ene-NMX): 106.1 °C
T Peak Max-2 ([1]; C12-ene-NMG:C12-ene-NMX): 108.5 °C
physical consistency of sample [2]: powders

Compound: N-Methylglucamine [Example 1]
Krafft Point [6]: 20 °C

Compound: CCCCCCCCCCCC(=O)N(C)CC(O)C(O)C(O)CO (centres unmarked) [Example C12-NMX, N-Dodecanoyl-N-Methylxylamine]
Ending MP [3, 9]: 96.6 °C
Starting MP [3, 10]: 76 °C
T Intercept [4]: 69.7 °C
T Peak Max [4]: 77.0 °C
T Intercept-3 [4]: 95.6 °C
T Peak Max-3 [4]: 97.2 °C
initial melting point (Zhu et al) [5]: 74-75 °C

Compound: CCCCCCCCCCCC(=O)N(C)CC(O)CO (centres unmarked) [Example C12-NMGly, N-Dodecanoyl-(3-methylamino-1,2-propanediol)]
Ending PM [3, 8]: 52.8 °C
Starting MP [3, 8]: 46.3 °C
T Intercept ([1]; C12-NMG:C12-NMGly, peak 1): 44.5 °C
T Peak Max ([1]; C12-NMG:C12-NMGly, peak 1): 49.6 °C
T Intercept-2 ([1]; C12-NMG:C12-NMGly): 117.2 °C
initial melting point (Zhu et al) [5]: 40-40.5 °C

Further lines, results first:

T Intercept ([1]; NMHG:NMHX blends by weight): 48.6 °C
T Peak Max ([1]; NMHG:NMHX blends by weight): 52.3 °C
Compound: CCCCCCN(C)C[C@H](O)[C@@H](O)[C@H](O)CO [NMHX, N-Methyl Hexyl Xylamine]

T Intercept ([1]; NMHG:NMHX blends by weight): 73.8 °C
T Peak Max ([1]; NMHG:NMHX blends by weight): 79.0 °C
Compound: N-Methyl Hexyl Glucamine [NMHG]

T Intercept [1, 11]: 27.5 °C
T Peak Max [1, 11]: 38.8 °C
T Intercept-2 ([1]; C15-ene-NMG:C15-ene-NMX): 113.0 °C
T Peak Max-2 ([1]; C15-ene-NMG:C15-ene-NMX): 115.5 °C
physical consistency of sample [2]: waxy in nature
Compound: CCCCCC=CCCCCCCCC(=O)N(C)CC(O)C(O)C(O)CO (centres unmarked) [Example C15-ene-NMX, N-(9-Pentadecenoyl)-N-Methyl-Xylamine]

Krafft Point [6]: 37 °C
Compound: CCCCCCCCCCCC(=O)N(C)C[C@H](O)[C@@H](O)[C@H](O)[C@H](O)CO [Solution 13, N-Dodecanoyl-N-Methylglucamine]

T Intercept [1, 11]: 64.1 °C
T Peak Max [1, 11]: 77.9 °C
T Intercept-2 ([1]; C15-ene-NMG:C15-ene-NMX): 144.6 °C
T Peak Max-2 ([1]; C15-ene-NMG:C15-ene-NMX): 146.2 °C
Compound: CCCCCC=CCCCCCCCC(=O)N(C)C[C@H](O)[C@@H](O)[C@H](O)[C@H](O)CO [Example C15-ene-NMG, N-(9-Pentadecenoyl)-N-Methylglucamine]
